This test deals with T1, mouse TRPV4 (Mus musculus, UniProt Q9EPK8).
T1 construct: expressed in transfected cells; host or cells: HEK293
In words: fluo-4 Ca2+ assay selectivity, HEK cells expressing mouse TRPV4. Format: cell-based. To be noted: concentrations up to 50 μM. The text has this:
KU-19-19 (DSMZ no. ACC 395), CAL-29 (DSMZ no. ACC 515), 647-V (DSMZ no. ACC 414), RT-4 (DSMZ no. ACC 412), and RT-112 (DSMZ no. ACC 418) bladder cancer cell lines were obtained from the Leibniz Institute DSMZ (German Collection of Microorganisms and Cell Cultures). Human TRPV3 (NM_145068, purchased from OriGene) and mouse TRPV3 (NM_001371006), rat TRPV1, mouse TRPV2, mouse TRPV4, human TRPM2, human TRPM8, and human TRPA1 were stably transfected in HEK293 cells as described before.[27] […]
All fluorometric Ca^2+ assays were performed in HBS buffer at room temperature. […] For the primary compound screening and the generation of concentration-response analyses, a robotic liquid handling station (Freedom Evo 150; Tecan) with a built-in custom-made fluorescence plate imager was used. […] Fluorescence was excited using a 470-nm light-emitting diode, and emitted light was imaged through a 515-nm–long pass filter with a cooled Zyla 5.5 camera (Andor). Fluorescence was recorded and processed under the control of the μ-Manager 2.0 gamma software (https://micro-manager.org.[28]). After recording baseline fluorescence, compounds were dispensed into the wells via the liquid handling device. […] For further analysis, fluorescence signals were calculated for each well, corrected for background intensities and normalized to the initial signals. […]

T1 sequence (Q9EPK8 whole entry): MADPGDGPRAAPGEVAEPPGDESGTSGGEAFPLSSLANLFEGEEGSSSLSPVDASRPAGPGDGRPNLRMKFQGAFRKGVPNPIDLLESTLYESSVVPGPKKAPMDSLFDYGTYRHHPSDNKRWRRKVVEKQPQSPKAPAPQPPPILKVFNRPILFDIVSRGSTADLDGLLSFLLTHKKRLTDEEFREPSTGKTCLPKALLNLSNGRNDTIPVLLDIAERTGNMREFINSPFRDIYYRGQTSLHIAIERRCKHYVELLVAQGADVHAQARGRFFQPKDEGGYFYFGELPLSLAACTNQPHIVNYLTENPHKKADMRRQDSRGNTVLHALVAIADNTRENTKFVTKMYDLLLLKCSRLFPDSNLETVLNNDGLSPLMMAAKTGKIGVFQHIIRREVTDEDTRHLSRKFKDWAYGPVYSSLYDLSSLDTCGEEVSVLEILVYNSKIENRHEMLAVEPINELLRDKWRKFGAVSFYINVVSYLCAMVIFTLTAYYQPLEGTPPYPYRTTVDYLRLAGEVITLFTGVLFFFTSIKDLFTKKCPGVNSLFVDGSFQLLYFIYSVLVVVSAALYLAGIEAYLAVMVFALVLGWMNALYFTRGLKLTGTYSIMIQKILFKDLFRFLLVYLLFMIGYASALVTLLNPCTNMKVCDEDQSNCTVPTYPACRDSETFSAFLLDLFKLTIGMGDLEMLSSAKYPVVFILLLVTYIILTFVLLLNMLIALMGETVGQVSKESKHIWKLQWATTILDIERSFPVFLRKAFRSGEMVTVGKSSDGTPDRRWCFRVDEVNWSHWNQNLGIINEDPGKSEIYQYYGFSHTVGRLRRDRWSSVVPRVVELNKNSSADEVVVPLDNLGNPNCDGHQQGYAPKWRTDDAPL

For the molecule `COC(=O)C12CN(Cc3ccccc3)CC1(C(=O)OC)CN(Cc1ccccc1)C2` (stereo not shown) [AV3-1], the “effect on TRPV4” value was “no effect”.

For the origin of these results see PMC12881674, “Activation of TRPV3 channels in bladder cancer cells stimulates ATP release” (Molecular Pharmacology, 2025).
